Among the test systems are Acinetobacter baumannii; Escherichia coli 319238; Escherichia coli LEC 001; Klebsiella pneumoniae M6; Staphylococcus aureus 15; Escherichia coli 078; Escherichia coli UB1005; Streptococcus agalactiae; Aeromonas salmonicida; Vibrio anguillarum.
What all share (assay): ≥ marks a high value that may be exact or a test limit, other limits are often not marked, values filed in µg/mL are converted to µM
Assay [1] concerns Acinetobacter baumannii ATCC 17987.
Assay [2] concerns Acinetobacter baumannii AYE.
Assay [3] has as its system Acinetobacter baumannii NCTC 13302.
Assay [4] concerns Acinetobacter baumannii NCTC 13424.
In assay [5] the test system is Acinetobacter baylyi ADP1.
For assay [6], the system named is Enterococcus faecalis NCTC 12201.
Assay [7] has as its system Enterococcus faecalis NCTC 12204.
For assay [8], the system named is Enterococcus faecalis NCTC 775.
For assay [9], the system named is Escherichia coli CFI_160_KPC2.
Assay [10] concerns Escherichia coli CFI_161_NDM.
Assay [11] relates to Escherichia coli NCTC 12923.
Assay [12] concerns Klebsiella pneumoniae NCTC 13368.
For assay [13], the system named is Pseudomonas aeruginosa NCTC 13437.
Assay [14] deals with Pseudomonas aeruginosa PAO1.
The subject of assay [15] is Pseudomonas syringae pv. tomato.
The test system of assay [16] is Staphylococcus aureus NCTC 9144.
Assay [17] has as its system Xanthomonas axonopodis pv. phaseoli.
For assay [18], the system named is Escherichia coli ATCC 25922.
For assay [19], the system named is Lacticaseibacillus rhamnosus 7469.
For assay [20], the system named is Pseudomonas aeruginosa ATCC 27853.
Assay [21] relates to Salmonella enterica subsp. enterica serovar Pullorum ATCC 7913.
The subject of assay [22] is Salmonella enterica subsp. enterica serovar Typhimurium ATCC 14028.
Assay [23] relates to Salmonella enterica subsp. enterica serovar Typhimurium C77-31.
For assay [24], the system named is Staphylococcus aureus ATCC 25923.
Assay [25] concerns Staphylococcus aureus ATCC 29213.
Assay [26] has as its system Staphylococcus epidermidis ATCC 12228.
Assay [27] has as its system Streptococcus agalactiae CICC 10465.
Assay [28] deals with Streptococcus thermophilus YM-C.
Assay [29] concerns Mannheimia haemolytica 82-25.
In assay [30] the test system is Pseudomonas aeruginosa K799.
Assay [31] relates to Pseudomonas aeruginosa Z61.
The subject of assay [32] is Salmonella enterica serovar typhimurium MS7953s.
Assay [33] has as its system Salmonella enterica subsp. enterica serovar Typhimurium ATCC 14028s.
Assay [34] has as its system Staphylococcus epidermidis C621.

Structures are written as SMILES. ≈ marks a conversion by molar mass, not a printed value.

For the molecule `CC[C@H](C)[C@H](NC(=O)[C@H](CCCCN)NC(=O)[C@H](CCC(=O)O)NC(=O)[C@H](CCCCN)NC(=O)CNC(=O)[C@H](C)N)C(=O)N[C@@H](CCCN=C(N)N)C(=O)N[C@@H](CCCCN)C(=O)N[C@@H](CCCCN)C(=O)N[C@@H](CC(C)C)C(=O)N[C@@H](CCCCN)C(=O)N[C@@H](CC(N)=O)C(=O)N[C@@H](CCC(=O)O)C(=O)N[C@H](C(=O)N[C@@H](CCCCN)C(=O)N[C@@H](CCCCN)C(=O)N[C@@H](CCCCN)C(=O)N[C@@H](Cc1c[nH]c2ccccc12)C(=O)N[C@@H](CCCN=C(N)N)C(=O)N[C@@H](CCCCN)C(=O)N[C@@H](C)C(=O)N[C@H](C(=O)N[C@H](C(=O)N[C@@H](C)C(=O)N[C@@H](Cc1c[nH]c2ccccc12)C(=O)O)[C@@H](C)CC)C(C)C)[C@@H](C)CC` [AGKEKIRKKLKNEIKKKWRKAVIAW], the MIC (usually the lowest concentration that inhibits growth of the organism) in [1] is 2.62 µM (≈ 8 µg/mL); in assay [2] it was 0.656 µM (≈ 2 µg/mL); in [3] it was 0.656 µM (≈ 2 µg/mL); in [4], 5.24 µM (≈ 16 µg/mL); in the assay with Acinetobacter baumannii it was 0.656 µM (≈ 2 µg/mL); in [5], 1.31 µM (≈ 4 µg/mL). For the same molecule, the MIC is at least 42 µM in assay [6]; 21 µM (≈ 64 µg/mL) in assay [7]; at least 42 µM in assay [8]; 5.24 µM (≈ 16 µg/mL) in the assay with Escherichia coli 319238; 2.62 µM (≈ 8 µg/mL) in assay [9]; 1.31 µM (≈ 4 µg/mL) in [10]. Besides, the MIC against Escherichia coli LEC 001 is 5.24 µM (≈ 16 µg/mL); in [11], 0.656 µM (≈ 2 µg/mL); against Klebsiella pneumoniae M6, 21 µM (≈ 64 µg/mL); in assay [12], at least 42 µM; in [13], at least 42 µM; in assay [14], 42 µM (≈ 128 µg/mL). Moreover, the minimal inhibitory concentration (MIC) in assay [15] is 0.328 µM (≈ 1 µg/mL); with Staphylococcus aureus 15, at least 42 µM; in assay [16], 10.5 µM (≈ 32 µg/mL); in [17], 0.164 µM (≈ 0.5 µg/mL).
For `CC[C@H](C)[C@H](NC(=O)[C@H](CC(C)C)NC(=O)[C@@H](NC(=O)[C@@H](N)CC(=O)O)[C@@H](C)CC)C(=O)N[C@H](C(=O)N[C@H](C(=O)NCC(=O)NCC(=O)NCC(=O)N[C@@H](CO)C(=O)NCC(=O)N[C@@H](CCCCN)C(=O)N[C@@H](CCC(=O)O)C(=O)N[C@@H](CCCN=C(N)N)C(=O)N[C@@H](CCCCN)C(=O)N[C@@H](CCCCN)C(=O)N[C@@H](CCCN=C(N)N)C(=O)N[C@@H](CCCN=C(N)N)C(=O)N[C@@H](CCCN=C(N)N)C(N)=O)C(C)C)[C@@H](C)CC` [DILIIVGGGSGKERKKRRR], the MIC against Escherichia coli 078 is at least 64 µM; in assay [18], above 64 µM; in the assay on Escherichia coli UB1005, at least 64 µM; in assay [19] it was at least 64 µM; in [20], above 64 µM; in [21], at least 64 µM. The MIC in assay [22] was above 64 µM; in assay [23], at least 64 µM; in assay [24], above 64 µM; in assay [25], above 64 µM; in assay [26], above 64 µM; in assay [27], 4 µM (≈ 8.55 µg/mL). The results for the MIC (against Streptococcus agalactiae; in assay [28]) were 4 µM (≈ 8.55 µg/mL) and at least 64 µM, respectively.
For `C[C@H](NC(=O)CN)C(=O)N[C@@H](CC(=O)O)C(=O)N[C@@H](CC(=O)O)C(=O)N[C@@H](CC(=O)O)C(=O)N[C@@H](CC(=O)O)C(=O)N[C@@H](CC(=O)O)C(=O)O` [GADDDDD], the MIC in assay [29] amounted to 30 µM (≈ 21.6 µg/mL). In other words, the double-digit micromolar range.
`CC(C)C[C@H](NC(=O)[C@H](Cc1ccc(O)cc1)NC(=O)[C@H](Cc1cnc[nH]1)NC(=O)[C@@H](NC(=O)[C@H](CC(C)C)NC(=O)[C@H](C)NC(=O)[C@H](C)NC(=O)[C@H](CCCCN)NC(=O)CNC(=O)[C@@H](NC(=O)[C@H](Cc1cnc[nH]1)NC(=O)[C@H](CCCCN)NC(=O)CNC(=O)[C@@H](NC(=O)[C@H](Cc1cnc[nH]1)NC(=O)[C@H](C)NC(=O)[C@H](C)NC(=O)[C@H](CCCCN)NC(=O)[C@H](CCCCN)NC(=O)[C@H](Cc1ccccc1)NC(=O)[C@H](Cc1ccccc1)NC(=O)[C@H](CO)NC(=O)CNC(=O)[C@H](Cc1c[nH]c2ccccc12)NC(=O)CNC(=O)[C@@H](N)CCCCN)C(C)C)C(C)C)[C@@H](C)O)C(N)=O` [KGWGSFFKKAAHVGKHVGKAALTHYL]: the MIC with Aeromonas salmonicida came out at 0.352 µM (≈ 1 µg/mL); in assay [30], 0.704 µM (≈ 2 µg/mL); in assay [31], 0.704 µM (≈ 2 µg/mL); in [32], 0.176 µM (≈ 0.5 µg/mL); in [33] it was 0.704 µM (≈ 2 µg/mL); in assay [34], 0.704 µM (≈ 2 µg/mL). The MIC in the assay with Vibrio anguillarum was 0.704 µM (≈ 2 µg/mL).
